Data reported in EP4599829A1, “USE OF IMIDAZOLIDINYL VANILLIC ACID ETHER DERIVATIVE IN TREATMENT OF DISEASE ACCOMPANIED BY FIBROSIS” (Hefei Institute of Pharmaceutical Industry Co., Ltd., priority 2022, dated 2024).
Marks after values point to notes of the source that are not given here.

Tests used:
Assay type in all cases: in vivo, Female BALB/c mice
thromboxane B2 (TXB2) = assay: Serum TXB2 level (ELISA) in BLM-induced systemic sclerosis mouse model; details: 0.10 mmol/kg once a day for 28 days; for TXB2: serum, oral (gavage) (Sodium Ozagrel: intravenous injection), mean ± SE, n = 8, blank 74.19±14.76, model 261.91±10.96
Description: (§1) Female BALB/c mice, weighing 18-22 g, were purchased from Beijing Weitonglihua Experimental Animal Technology Co., Ltd. and housed in an SPF environment for 1 week (with free access to drinking water during the feeding period). They were then randomly divided into 9 groups, with 10 mice in each group, namely, blank group, model group, sodium ozagrel group, dipyridamole group, clopidogrel group, cilostazol group, ticagrelor group, aspirin group, and HY-2 group. The back of mice of each group was shaved in an area of 1 cm*1 cm. Except for the blank group which was subcutaneously injected with normal saline, all other groups were subcutaneously injected with BLM 100 µL (0.5 mg/mL) for 28 consecutive days (the injection area was injected at the four corners of the shaved area for the first 4 times, and the center of the shaved area for the 5th time, and this cycle was repeated. The skin changes at the subcutaneous injection site and the weight changes of the mice were observed every week). Each treatment group was respectively given sodium ozagrel, dipyridamole, clopidogrel, cilostazol, ticagrelor, aspirin, and HY-2 30 minutes after the injection of BLM, once a day for 28 consecutive days (the dosage and administration method are shown in Table 1). Table 1 Dosage and administration method
(§2) Mouse TXB2 ELISA kit was purchased from Shanghai Jianglai Biological, batch number: 20220715, antibody types: purified mouse TXB2 capture antibody and horseradish peroxidase (HRP)-labeled detection antibody; mouse TGF-β1 ELISA kit was purchased from Shanghai Jianglai Biological, batch number: 20220806, antibody types: purified mouse TGF-β1 capture antibody and horseradish peroxidase (HRP)-labeled detection antibody.
(§3) The kit uses a double-antibody one-step sandwich enzyme-linked immunosorbent assay (ELISA). Serum specimens, standards, and horseradish peroxidase (HRP)-labeled detection antibodies are added sequentially to the coated microwells pre-coated with mouse analyte capture antibodies, followed by incubation and thorough washing. The substrate TMB (3,3',5,5'-tetramethylbenzidine) is used for color development. TMB is converted to be blue under the catalysis of peroxidase (HRP) and then converted to be finally yellow under the action of acid. The depth of color is positively correlated with the content of the analyte in the serum sample. The absorbance (OD value) was measured at a wavelength of 450 nm using a microplate reader to calculate the sample concentration.
(§4) After the last administration, the animals were sacrificed and serum samples were collected. Standard wells were set on the enzyme-labeled coated plate, standard solutions of different concentrations were prepared according to the instructions, and 50uL of standard solutions of different concentrations were added to each standard well. Blank wells and test sample wells were set on the enzyme-labeled coated plate, 40uL of sample diluent was first added to the test sample well, and 20uL of test serum sample was then added. 100uL of enzyme-labeled reagent was added to each well, except the blank well. The plate was sealed with a sealing film and incubated at 37°C for 60 minutes. The sealing film was removed, and after discarding the liquid and spinning dry, each well was filled with washing solution, and stood for 30 seconds, then discarding the washing solution, repeating 5 times and spinning dry. 50uL of color developer A (containing H2O2) was first added into each well, and then 50uL of color developer B (containing substrate TMB) was added, gently shaking to mix, and color developing at 37°C in the dark for 15 minutes. 50uL of stop solution was added to each well to stop the reaction (the blue color immediately turns to yellow). The microplate reader was adjusted to zero with the blank well, and the absorbance OD value of each well was measured in sequence at a wavelength of 450nm. The measurement should be carried out within 15 minutes after adding the stop solution.

[1] = tested on: transforming growth factor β1 (TGF-β1); assay: Serum TGF-β1 level (ELISA) in BLM-induced systemic sclerosis mouse model; details: 0.10 mmol/kg once a day for 28 days; for TGF-β1: serum, oral (gavage) (Sodium Ozagrel: intravenous injection), mean ± SE, n = 8, blank 379.76±120.63, model 913.10±64.73
Description: as §1, §2, §3, §4

[2] = tested on: BLM-Induced Systemic Sclerosis Mouse Model; assay: Comparison with other antiplatelet drugs: skin thickening in BLM-induced systemic sclerosis mouse model; details: 0.10 mmol/kg once a day for 28 days; for Skin thickness: oral (gavage) (Sodium Ozagrel: intravenous injection), mean ± SE, n = 8, blank 0.22±0.05, model 0.87±0.15
Description: as §1
After the last administration, the animals were sacrificed, and the back skin tissue was taken, fixed with 4% paraformaldehyde, dehydrated, paraffin-embedded and sliced. The tissue sections were stained with HE, and the pathological morphological changes of the skin tissue were examined with a microscope and the skin thickening was measured.
The experimental data were processed using GraphPad Prism 7, and the experimental groups were compared using the student t test.

[3] = tested on: BLM-Induced Systemic Sclerosis Mouse Model; assay: Collagen deposition (Masson staining) in skin and lung tissues of BLM-induced systemic sclerosis mouse model; details: each dose group (15, 30, 60 mg/kg) oral (gavage) once a day for 28 days, compared with the model group, P<0.01
Description: (§5) Female BALB/c mice, weighing 18-22 g, were purchased from Beijing Weitonglihua Experimental Animal Technology Co., Ltd. and housed in an SPF environment for 1 week (with free access to water during the feeding period). They were then randomly divided into 5 groups, with 8 mice in each group, namely, blank group, model group, HY-2 15 mg/kg, 30 mg/kg, and 60 mg/kg dose groups. The back of each group of mice was shaved in an area of 1 cm*1 cm. Except for the blank group which was subcutaneously injected with normal saline, all other groups were injected with BLM 100 µL (0.5 mg/mL) for 28 consecutive days (the injection area was the four corners of the shaved area for the first 4 injections, and the center of the shaved area for the 5th injection, and this cycle was repeated. The skin changes at the subcutaneous injection site and the weight changes of the mice were observed every week). After the injection of BLM, each dose treatment group was orally (gavage) administered the corresponding dose of HY-2 once a day for 28 consecutive days.
After the last administration, the animals were sacrificed, and appropriate skin and lung tissues were taken for Masson staining and slide preparation to examine the collagen deposition in the skin and lung tissues. The percentage of collagen deposition was quantified using Image-Pro® Plus software.

[4] = tested on: BLM-Induced Systemic Sclerosis Mouse Model; assay: Skin thickening (HE staining) in BLM-induced systemic sclerosis mouse model, dose groups; details: compared with the model group
Description: Female BALB/c mice, weighing 18-22 g, were purchased from Beijing Weitong Lihua Experimental Animal Technology Co., Ltd. and housed in an SPF environment for 1 week (with free access to drinking water during the feeding period). They were then randomly divided into 5 groups, 8 mice in each group, namely, blank group, model group, 15 mg/kg, 30 mg/kg, and 60 mg/kg dosage groups of sodium 4-(2-(1H-imidazol-1-yl)ethoxy)-3-methoxybenzoate (HY-2). The back of each group of mice was shaved in an area of 1 cm*1 cm. Except for the blank group which was subcutaneously injected with normal saline, all other groups were injected with BLM 100 µL (0.5 mg/mL) for 28 consecutive days (the injection area was the four corners of the shaved area for the first 4 injections, and the center of the shaved area for the 5th injection, and this cycle was repeated. The skin changes at the subcutaneous injection site and the weight changes of the mice were observed every week). After the injection of BLM, the treatment group was orally (gavaged) given the corresponding dose of sodium 4-(2-(1H-imidazole-1-yl)ethoxy)-3-methoxybenzoate, once a day, for 28 consecutive days.
After the last administration, the animals were sacrificed, and appropriate skin tissues were taken for HE staining and measurement of skin thickening.

[5] = tested on: BLM-Induced Systemic Sclerosis Mouse Model; assay: Lung histopathology (HE staining) in BLM-induced systemic sclerosis mouse model; details: each dose group (15, 30, 60 mg/kg) oral (gavage) once a day for 28 days, compared with the model group
Description: as §5, with “given” for “administered”
After the last administration, the animals were sacrificed, and appropriate lung tissues were taken for HE staining and slide preparation to examine the lung tissue structure and inflammatory cell infiltration.

| Structure (SMILES) | TXB2 (thromboxane B2 (TXB2)) | TGF-β1 [1] | Skin thickness [2] | collagen deposition in the lung tissue [3] | collagen deposition in the skin [3] | effect on TXB2 in serum (in words) (thromboxane B2 (TXB2); vs model group) | effect on TGF-β1 in serum (in words) ([1]; vs model group) | skin thickening ([4]; 30 mg/kg oral (gavage) once a day for 28 days, P<0.05) | skin thickening ([4]; 60 mg/kg oral (gavage) once a day for 28 days, P<0.01) | skin thickness compared with the model group (in words) ([2]; P<0.01) | lung tissue structure and inflammatory cell infiltration [5] |
| --- | --- | --- | --- | --- | --- | --- | --- | --- | --- | --- | --- |
| CC(=O)Oc1ccccc1C(=O)O [Aspirin, aspirin] | 239.57 ± 13.60 pg/mL | 827.68 ± 77.88 pg/mL | 0.80±0.09^aa mm | – | – | – | – | – | – | – | – |
| O=C1CCc2cc(OCCCCc3nnnn3C3CCCCC3)ccc2N1 [Cilostazol, cilostazol] | 259.32±7.13^a pg/mL | 838.27 ± 65.93 pg/mL | 0.74±0.11^a mm | – | – | – | – | – | – | – | – |
| COC(=O)[C@H](c1ccccc1Cl)N1CCc2sccc2C1 [Clopidogrel, clopidogrel] | 208.46 ± 42.87 pg/mL | 822.62 ± 76.60 pg/mL | 0.81±0.10^aa mm | – | – | – | – | – | – | – | – |
| OCCN(CCO)c1nc(N2CCCCC2)c2nc(N(CCO)CCO)nc(N3CCCCC3)c2n1 [Dipyridamole, dipyridamole] | 248.84 ± 38.88 pg/mL | 867.56 ± 113.73 pg/mL | 0.74 ± 0.12^a mm | – | – | – | – | – | – | – | – |
| COc1cc(C(=O)[O-])ccc1OCCn1ccnc1.[Na+] [HY-2, sodium 4-(2-(1H-imidazol-1-yl)ethoxy)-3-methoxybenzoate] | 215.00 ± 38.92 pg/mL | 783.04 ± 53.77 pg/mL | 0.59±0.06 mm | significantly reduced | significantly reduced | significantly reduce | significantly reduce | significantly inhibited | significantly inhibited | significantly decreased | regular and infiltrated by less inflammatory cells |
| O=C(O)/C=C/c1ccc(Cn2ccnc2)cc1 [Sodium Ozagrel, sodium ozagrel] | 196.54 ± 45.30 pg/mL | 884.74±33.45^aa pg/mL | 0.82±0.16^aa mm | – | – | – | – | – | – | – | – |
| CCCSc1nc(N[C@@H]2C[C@H]2c2ccc(F)c(F)c2)c2nnn([C@@H]3C[C@H](OCCO)[C@@H](O)[C@H]3O)c2n1 [Ticagrelor, ticagrelor] | 197.76 ± 42.08 pg/mL | 847.62±43.73^a pg/mL | 0.74±0.07^aa mm | – | – | – | – | – | – | – | – |
